For data set [1], the system named is human ovarian carcinoma xenografts. Particulars: mice carrying human ovarian carcinoma xenografts; Cancer Res., 1993, 53, 2087; cited from earlier work. On the technique in general: In xenograft studies the graft and the host belong to different species.
For a further data set, the target named is T1, MMP-3 (Homo sapiens, UniProt P08254).
T1 construct: Catalytic domains MMP-2, MMP-3 and MMP-9 were prepared; made in house
Description: Inhibition of MMP-3, fluorogenic peptide cleavage. The data set is classed as biochemical. The settings on record: catalytic domain MMP-3, 1 nM enzyme, 5 μM substrate. The procedure: (§1) The biological activities of the compounds of the present invention were determined by the following test methods, which are based on the ability of the compounds to inhibit the cleavage of various fluorogenic peptides by MMPs 1, 2, 3, 9, 13 and 14.
(§2) The assays for MMPs 2, 3, 9 and 14 are based upon the original protocol described in Fed. Euro. Biochem. Soc., 1992, 296, 263, with the minor modifications described below.
(§3) Inhibition of MMP-2, MMP-3 and MMP-9
(§4) Catalytic domains MMP-2, MMP-3 and MMP-9 were prepared in Pfizer Central Research laboratories in a standard manner from sources known to the skilled person, including some of the references mentioned herein. A stock solution of MMP-2, MMP-3 or MMP-9 (1 μM) was activated by the addition of APMA. For MMP-2 and MMP-9, a final concentration of 1 mM APMA was added, followed by incubation for 1 hour at 37° C. MMP-3 was activated by the addition of 2 mM APMA, followed by incubation for 3 hours at 37° C. The enzymes were then diluted in Tris-HCl assay buffer (100 mM Tris, 100 mM NaCl, 10 mM CaCl2 and 0.16% Brij 35, pH 7.5) to a concentration of 10 nM. The final concentration of enzyme used in the assays was 1 nM.
(§5) The fluorogenic substrate used in this screen was Mca-Arg-Pro-Lys-Pro-Tyr-Ala-Nva-Trp-Met-Lys(Dnp)-NH2 (Bachem Ltd., Essex, UK) as originally described in J. Biol. Chem., 1994, 269, 20952. This substrate was selected because it has a balanced hydrolysis rate against MMPs 2, 3 and 9 (kcat/km of 54,000, 59,400 and 55,300 s^−1 M^−1 respectively). The final substrate concentration used in the assay was 5 μM.
(§6) Determination of Enzyme Inhibition
(§7) The test compound was dissolved in dimethyl sulphoxide and diluted with assay buffer so that no more than 1% dimethyl sulphoxide was present. Test compound and enzyme were added to each well of a 96 well plate and allowed to equilibrate for 15 minutes at 37° C. in an orbital shaker prior to the addition of substrate. Plates were then incubated for 1 hour at 37° C., prior to determination of fluorescence using a fluorimeter (Fluostar; BMG LabTechnologies, Aylesbury, UK) at an excitation wavelength of 328 nm and emission wavelength of 393 nm. The potency of inhibition was measured from the amount of substrate cleavage obtained using a range of test compound concentrations and, from the resulting dose-response curve, an IC50 value (the concentration of inhibitor required to inhibit 50% of the enzyme activity) was calculated.

The next data set has as its target MMP-2 (Homo sapiens, UniProt P08253). In words: Inhibition of MMP-2, fluorogenic peptide cleavage. The class given is biochemical. Particulars: catalytic domain MMP-2, 1 nM enzyme, 5 μM substrate. As to the method: as §1, §2, §3, §4, §5, §6, §7
The target of the next data set is T2, MMP-1 (Homo sapiens, UniProt P03956).
T2 construct: Catalytic domain MMP-1 was prepared; made in house
T2 sequence (P03956 100-269 limits assumed): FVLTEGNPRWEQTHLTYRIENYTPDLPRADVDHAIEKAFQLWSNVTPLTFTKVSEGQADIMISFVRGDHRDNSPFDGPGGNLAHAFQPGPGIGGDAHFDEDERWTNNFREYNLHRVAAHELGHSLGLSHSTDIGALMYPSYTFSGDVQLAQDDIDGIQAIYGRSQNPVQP
In words: Inhibition of MMP-1, fluorogenic peptide cleavage. The class given is biochemical. The settings on record: catalytic domain MMP-1, 1 nM enzyme, 10 μM substrate. As to the method: as §1
Catalytic domain MMP-1 was prepared in Pfizer Central Research laboratories in a standard manner from sources known to the skilled person, including some of the references mentioned herein. A stock solution of MMP-1 (1 μM) was activiated by the addition of aminophenylmercuric acetate (APMA), at a final concentration of 1 mM, for 20 minutes at 37° C. MMP-1 was then diluted in Tris-HCl assay buffer (50 mM Tris, 200 mM NaCl, 5 mM CaCl2, 20 μM ZnSO4 and 0.05% Brij 35, pH 7.5) to a concentration of 10 nM. The final concentration of enzyme used in the assay was 1 nM.
The fluorogenic substrate used in this assay was Dnp-Pro-β-cyclohexyl-Ala-Gly-Cys(Me)-His-Ala-Lys-(N-Me-Ala)-NH2 as originally described in Anal. Biochem., 1993, 212, 58. The final substrate concentration used in the assay was 10 μM.
as §6
as §7, with “C.” for “C.,”, “fluorescence (substrate cleavage)” for “fluorescence”, “355” for “328”, “440” for “393”, “IC50,” for “IC50”

For a further data set, the target named is T3, MMP-14 (Homo sapiens, UniProt P50281).
T3 construct: Catalytic domain MMP-14 was prepared; made in house
Description: Inhibition of MMP-14, fluorogenic peptide cleavage. The class given is biochemical. The settings on record: catalytic domain MMP-14, 1 nM enzyme. The procedure: as §1, §2
Catalytic domain MMP-14 was prepared in Pfizer Central Research laboratories in a standard manner from sources known to the skilled person, including some of the references mentioned herein. A 10 μM enzyme stock solution was activated for 20 minutes at 25° C. following the addition of 5 μg/ml of trypsin (Sigma, Dorset, UK). The trypsin activity was then neutralised by the addition of 50 μg/ml of soyabean trypsin inhibitor (Sigma, Dorset, UK), prior to dilution of this enzyme stock solution in Tris-HCl assay buffer (100 mM Tris, 100 mM NaCl, 10 mM CaCl2, 0.16% Brij 35, pH 7.5) to a concentration of 10 nM. The final concentration of enzyme used in the assay was 1 nM.
The fluorogenic substrate used in this screen was Mca-Pro-Leu-Gly-Leu-Dpa-Ala-Arg-NH2 (Bachem Ltd., Essex, UK) as described in J. Biol. Chem., 1996, 271, 17119.
Determination of enzyme inhibition
This was performed in the same manner as described for MMPs 2, 3 and 9.

In a further data set the target is MMP-9 (Homo sapiens, UniProt P14780). In words: Inhibition of MMP-9, fluorogenic peptide cleavage. The class given is biochemical. Particulars: catalytic domain MMP-9, 1 nM enzyme, 5 μM substrate. As to the method:
as §1, §2, §3, §4, §5, §6, §7

Sequence of MMP-9 (P14780 whole entry, the tested form may be a part): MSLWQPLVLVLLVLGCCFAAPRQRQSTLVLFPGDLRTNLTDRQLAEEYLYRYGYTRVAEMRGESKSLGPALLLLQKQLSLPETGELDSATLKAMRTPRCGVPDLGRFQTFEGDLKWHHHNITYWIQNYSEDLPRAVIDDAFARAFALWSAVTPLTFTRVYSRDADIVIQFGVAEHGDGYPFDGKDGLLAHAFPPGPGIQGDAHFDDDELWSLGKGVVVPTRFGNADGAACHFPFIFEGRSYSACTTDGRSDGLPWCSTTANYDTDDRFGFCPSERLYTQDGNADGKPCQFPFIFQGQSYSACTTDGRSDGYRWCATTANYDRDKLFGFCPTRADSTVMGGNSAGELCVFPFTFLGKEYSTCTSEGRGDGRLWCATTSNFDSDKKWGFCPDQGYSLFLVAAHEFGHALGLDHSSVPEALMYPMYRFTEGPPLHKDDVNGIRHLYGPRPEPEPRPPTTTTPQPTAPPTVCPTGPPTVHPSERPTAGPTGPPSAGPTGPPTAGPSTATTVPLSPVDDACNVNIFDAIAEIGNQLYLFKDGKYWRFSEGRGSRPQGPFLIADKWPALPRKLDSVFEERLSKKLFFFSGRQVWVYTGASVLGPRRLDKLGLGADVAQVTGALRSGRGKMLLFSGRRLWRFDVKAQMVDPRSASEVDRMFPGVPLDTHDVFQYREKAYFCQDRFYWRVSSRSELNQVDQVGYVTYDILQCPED
Sequence of MMP-2 (P08253 whole entry, the tested form may be a part): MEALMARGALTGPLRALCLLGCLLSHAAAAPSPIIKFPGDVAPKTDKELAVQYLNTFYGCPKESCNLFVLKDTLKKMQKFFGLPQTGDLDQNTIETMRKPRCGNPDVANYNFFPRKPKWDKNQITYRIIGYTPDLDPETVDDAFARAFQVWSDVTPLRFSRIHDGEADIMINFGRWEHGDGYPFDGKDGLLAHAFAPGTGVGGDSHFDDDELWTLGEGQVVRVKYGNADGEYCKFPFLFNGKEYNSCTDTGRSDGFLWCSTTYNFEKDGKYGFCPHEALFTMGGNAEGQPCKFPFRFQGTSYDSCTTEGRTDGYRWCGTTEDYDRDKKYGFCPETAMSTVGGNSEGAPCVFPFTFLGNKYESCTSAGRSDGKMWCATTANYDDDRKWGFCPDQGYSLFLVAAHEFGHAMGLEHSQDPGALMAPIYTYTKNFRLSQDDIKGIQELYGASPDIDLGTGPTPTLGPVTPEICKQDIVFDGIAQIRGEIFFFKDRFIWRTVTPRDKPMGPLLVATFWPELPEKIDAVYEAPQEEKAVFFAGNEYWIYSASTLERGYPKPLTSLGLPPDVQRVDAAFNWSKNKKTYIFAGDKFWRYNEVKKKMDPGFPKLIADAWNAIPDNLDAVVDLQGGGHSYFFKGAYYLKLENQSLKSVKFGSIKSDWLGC
T1 sequence (P08254 100-272 limits assumed): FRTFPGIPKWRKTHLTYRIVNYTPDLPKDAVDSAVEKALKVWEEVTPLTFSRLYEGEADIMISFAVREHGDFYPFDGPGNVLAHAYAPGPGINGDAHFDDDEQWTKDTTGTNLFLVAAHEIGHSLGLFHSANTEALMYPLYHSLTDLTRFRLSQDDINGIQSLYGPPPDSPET

With `CNC(=O)[C@H](Cc1ccccc1)NC(=O)[C@H](CC(C)C)[C@H](CSc1cccs1)C(=O)NO` [BB-94], in data set [1], the survival entry is “prolong the survival” and the tumour burden result is reported as “decrease the tumour burden”.
Broadly, the IC50 is the midpoint of a concentration-inhibition curve. By melting point is commonly meant the temperature of the solid-liquid transition. Compound `Cc1cc(C2CCN(S(=O)(=O)C3(C(=O)NO)CCOCC3)CC2)ccc1-c1cccc(OC[C@H](O)CO)n1` [Example 5, N-Hydroxy 4-{[4-(4-{6-[(2R)-2,3-dihydroxy-1-propoxy]pyridin-2-yl}-3-methylphenyl)piperidin-1-yl]sulphonyl}tetrahydro-2H-pyran-4-carboxamide] showed a melting point of 125 to 130 °C. Also, the IC50 against MMP-3 was less than 10 nM. The same compound yielded an IC50 on MMP-2 greater than 100 nM. Moreover, at MMP-1, the 50% inhibitory concentration (IC50) was greater than 1000 nM. On MMP-14, this compound gave an IC50 greater than 2000 nM. On MMP-9, the IC50 is greater than 70 nM.
`Cc1cc(C2CCN(S(=O)(=O)C3(C(=O)NO)CCOCC3)CC2)ccc1-c1cccc(OCCN)c1.Cl` [Example 14, N-Hydroxy 4-{[4-(-4-{3-[2-aminoethoxy]phenyl}-3-methylphenyl)piperidin-1-yl]sulphonyl}tetrahydro-2H-pyran-4-carboxamide hydrochloride]: the melting point lay in the range of 208 to 210 °C. The same compound came in with an IC50 against MMP-3 of less than 10 nM. The concentration for half-maximal inhibition (IC50) at MMP-2 was greater than 100 nM. The IC50 at MMP-1 was greater than 1000 nM. Besides, on MMP-14, the IC50 was greater than 2000 nM. This compound also showed an IC50 against MMP-9 greater than 70 nM.

The record behind these values is patent US6511993B1, “Metalloprotease inhibitors” (priority 1999, dated 2003).
